This is an account of results in PMC9716151, “Synthesis, antimalarial, antileishmanial evaluation, and molecular docking study of some 3-aryl-2-styryl substituted-4(3H)-quinazolinone derivatives” (BMC Chemistry, 2022).

SMILES strings stand for the structures. ≈ marks a conversion by molar mass, not a printed value. Like-named read-outs stand apart in the source and are kept apart here. Some results are limits rather than exact numbers.

The subject of data set [1] is Leishmania donovani promastigotes (clinical isolate). As to the kind of experiment: in vitro antipromastigote activity test (AlamarBlue/resazurin). The class given is cell-based. The note with it: for IC50: Leishmania donovani. As for the experimental part: The antipromastigote activities of the synthesized compounds and the existing antileishmanial drugs (miltefosine and amphotericin B deoxycholate) were assessed using the clinical isolate of the Leishmania donovani strain, which is known to cause VL worldwide. The soluble, stable and non-toxic fluorescence dye, AlamarBlue® (resazurin) (Trek Diagnostic Systems, Inc., Cleveland, OH, USA) was used to quantitatively determine the viability of Leishmania donovani and compute the IC50 value of target compounds and the reference drugs. Only metabolically active cells can reduce resazurin and convert into fluorescent resorufin. Thus, the fluorescent intensity of resorufin is directly correlated to the number of viable Leishmania donovani cells. […] Inspired by its promising antileishmanial outcome, (E)-2-(4-nitrostyryl)-3-phenylquinazolin-4(3H)-one (6) was subjected to molecular docking study by fitting it in Lm-PTR1 active site to gain an insight about the types of interactions between the simulated enzyme and itself.
RPMI-1640, 10% heat-inactivated fetal calf serum (HIFCS), 1% penicillin–streptomycin, and 1% L-glutamine were supplied to make a complete culture medium. The Leishmania donovani isolate was grown first on Novy-MacNeal-Nicolle (NNN) medium and then in tissue-culture flasks containing RPMI 1640 medium supplemented with 10% HIFCS and 1% 100 IU penicillin/mL-100 µg/mL streptomycin solution at 22 ℃ for promastigotes.
Stock solutions of 10 mg/mL of the synthesized compounds were prepared by dissolving each compound in DMSO for the antileishmanial activity testing. Stock solutions were diluted using complete RPMI to obtain aliquots of 10 µg/mL. Then, three-fold serial dilution with complete RPMI gave the final six working concentrations (10, 3.33, 1.11, 0.37, 0.12, and 0.04 µg/mL) of each of the synthesized compounds. Amphotericin B deoxycholate and miltefosine, which were used as positive controls for the comparison of the antileishmanial activities of the test compounds, were also made in three-fold serial dilutions. All the prepared drugs were stored at − 20 °C and retrieved only during use.
Prior to the in vitro antipromastigote testing, serial concentrations of the target compounds were prepared by implementing three-fold dilutions. Then, in a 96-well microtiter plate, 100 µl of each of the three-fold serial dilutions of the target compounds were added in triplicate wells. Then 100 µl of Leishmania donovani suspension containing 3.0 × 10^6 promastigotes per milliliter were added in duplicates. In this experiment, the media and DMSO served as a negative control. Moreover, the concentration of DMSO was maintained below 1% of the target compound preparation to avoid the potential growth inhibition and interference effect of DMSO in the entire antipromastigote assay. Properly labelled plates which belong to the negative-control group, positive-control groups (treated with miltefosine and amphotericin B deoxycholate) and target compounds were then kept in a humidified atmosphere at 22 ℃ under 5% CO2 […]. To determine the viability Leishmania donovani isolates after the respective treatment, 10 µL of fluorochrome AlamarBlue® solution prepared by dissolving 12.5 mg resazurin in 100 mL of distilled water was added to each well and incubated for 4 h. Then, the fluorescence intensity of each well was determined using Victor3 Multilabel Counter (PerkinElmer, Waltham, MA, USA), at 530 nm and 590 nm, excitation and emission wavelengths, respectively. The IC50 values of the negative-control, positive-control groups and test-groups were determined from sigmoidal dose-response curves using GraphPad Prism 5.0 software (GraphPad Software, Inc., San Diego, CA, USA).
In general terms: Alamar Blue is a resazurin reagent that responds to reducing activity.

Data set [2] has as its system Plasmodium berghei ANKA strain. The data set can be described thus: four-day standard suppressive test in infected mice. It counts as in vivo, Plasmodium berghei (Swiss albino mice). Particulars: for inhibition in vivo at 48.46 µmol/kg: Plasmodium berghei, 96 h, read-out: % Suppression; for % Parasitemia: smear on 5th day, mean ± SD. The source says: In the present study, the in vivo antimalarial activities of the synthesized compounds were investigated using a mouse model which is ideal to elucidate the prodrug effects of the target compounds triggered by metabolic activation and eradication of infection due to the potential involvement of the immune system. To achieve a steady state infection against the experimental animals, Plasmodium berghei ANKA strain served as a parasite in the experiment and the effects of the target compounds was assessed by the standard four-day suppressive test (often employed to evaluate early infections) in terms of percent inhibition of parasitemia which is recognized as most trustworthy parameter in vivo antimalarial studies. Herein, the standard antimalarial drug chloroquine phosphate (CQ) and equimolar amounts (48.46 µmol/Kg) of the target 3-aryl-2-styry substituted-4(3H)-quinazolinone derivatives were administered orally and the % suppression, parasitemia level, and the survival time of mice were compared against mice treated with a formulation containing a solution of 7% Tween 80, and 3% ethanol in distilled water (control group).
Swiss albino male mice of weight 20–32 g and age 6–8 weeks were used for the antimalarial activity and acute toxicity tests. Plasmodium berghei ANKA strain is used to infect the mice for a four-day suppressive test, were obtained from Biomedical Laboratory, Department of Biology, Faculty of Science, AAU. Leishmania donovani isolate used in this study was obtained from the Leishmania Diagnosis and Research Laboratory (LDRL) culture bank, School of Medicine, AAU.
The antimalarial activities of the target compounds were assessed by the four-day standard suppressive test against mice infected with Plasmodium berghei. The mice were acclimatized to the experimental conditions in the animal house of Biomedical Laboratory, Addis Ababa University, Faculty of Science, Department of Biology, for seven days prior to the in vivo antimalarial activity testing. In due course, the mice were subjected to live in standard cages with a pelleted diet and water. To trigger a steadily rising infection in mice, blood infected with Plasmodium berghei ANKA strain (approximately 20–30% level of parasitemia) was collected from a donor mice using a syringe supplemented with 0.5% trisodium citrate and diluted in physiological saline to […]. Then, 0.2 mL of inoculum (supposed to have about 2 × 10^7 parasites) was injected into each mouse through the intraperitoneal route to achieve the desired level of infection within a short period of time. After 2 h of post-infection, the mice were carefully weighed using a digital balance and randomly assigned into nine groups where each group contain five mice. Of which, mice assigned as a negative control (Group 1) subjected to the formulation composed of 7% Tween 80, and 3% ethanol in distilled water (2 mL/100 g). In addition, mice which belong to the positive control (Group 2) was treated with 25 mg/kg/day (0.04846 mmol/kg/day) of chloroquine phosphate (CQ). The remaining groups (3–9) were subjected to oral treatment with equimolar amounts of the respective target compounds for four consecutive days. Finally, a blood smear was taken from the tail of the mice in the 5th day (24 h after the last dose), air-dried, fixed with absolute methanol and treated with 6% Giemsa stain. The mean parasitemia level of each group (control and treatment groups) was computed microscopically by counting the number of erythrocytes in four fields (⁓100 erythrocytes per field).

For the next data set, the system named is male Swiss albino mice. As to the kind of experiment: in vivo oral acute toxicity test. Particulars: for mortality in mice: oral 50, 100, 200 and 300 mg/kg, within 24 h and entire study period (14 days); for visible signs of overt toxicity: oral up to 300 mg/kg, physical and behavioral observations, 14 days. As for the experimental part: For this purpose, the mice were randomly allocated into six groups each containing six mice. The first five groups of mice (Group 1–5) received each target compound solubilized using 1% gum acacia at a dose of 10, 50, 100, 200 and 300 mg/kg, respectively. The mice in last group (group 6, served as a negative control) were orally treated with the solvent used to dissolve the target compounds (1% gum acacia) at a maximum dose of 1 mL/100 gm of body weight. Each mouse was then monitored for gross changes such as salivation, loss of appetite, lacrimation, hair erection, diarrhea, convulsions, death, and other signs of overt toxicity.

The subject of a further data set is Leishmania major. Also on record: method as in PMID 20235747. The note with it: cited from earlier work.
Setting [3] is: L. donovani promastigotes, 22 °C, AlamarBlue fluorescence.
[4] abbreviates: L. donovani promastigotes, 22 °C, AlamarBlue fluorescence, read-out: IC50 values, antipromastigote activity.
Setting [5] is: mice infected with P. berghei ANKA, oral, 48.46 µmol/kg for four days (CQ 25 mg/kg).
Where [6] appears, read: po, mice infected with P. berghei ANKA, oral, 48.46 µmol/kg for four days (CQ 25 mg/kg), versus negative control.
Where [7] appears, read: read-out: IC50 values, antipromastigote activity, L. donovani promastigotes, 22 °C, AlamarBlue fluorescence.

One may read the IC50 as the concentration that inhibits the measured activity by half.

Take `CCCCCCCCCCCCCCCCOP(=O)([O-])OCC[N+](C)(C)C` [Miltefosine, hexadecylphosphocholine, reference compound]: the “IC50 values, antipromastigote activity” value in data set [1] (setting [3]) came out at 3.191 ± 0.194 µg/mL (≈ 7.83 µM). Besides, the IC50 in data set [1] (setting [4]) was determined as 3.19 µg/mL (≈ 7.83 µM).
Take `CCN(CC)CCCC(C)Nc1ccnc2cc(Cl)ccc12` (stereo not drawn) [CQ, chloroquine phosphate, reference compound]: the inhibition in vivo at 48.46 µmol/kg in data set [2] turned out to be 100%. Besides, the “% Parasitemia” value in data set [2] (setting [5]) is listed as 0%.
Turning to `C[C@@H]1[C@H](O)[C@@H](C)/C=C/C=C/C=C/C=C/C=C/C=C/C=C/[C@H](O[C@@H]2O[C@H](C)[C@@H](O)[C@H](N)[C@@H]2O)C[C@@H]2O[C@](O)(C[C@@H](O)C[C@@H](O)[C@H](O)CC[C@@H](O)C[C@@H](O)CC(=O)O[C@H]1C)C[C@H](O)[C@H]2C(=O)O` [Amphotericin B, amphotericin B deoxycholate, reference compound], the IC50 in data set [1] (setting [4]) turned out to be 0.046 ± 0.009 µg/mL (≈ 0.0498 µM).
As for `O=c1c2ccccc2nc(/C=C/c2ccc([N+](=O)[O-])cc2)n1-c1ccccc1` [Compound 6, (E)-2-(4-nitrostyryl)-3-phenylquinazolin-4(3H)-one], the inhibition in vivo at 48.46 µmol/kg in data set [2] (setting [6]) was less than 50%. Moreover, in data set [2] (setting [5]), the Mean survival time worked out at 6.5 ± 0.3 days and the “% Parasitemia” value came to 39.22 ± 0.7%. The “IC50 values, antipromastigote activity” value in data set [1] (setting [3]) was 0.021 ± 0.008 µg/mL (≈ 0.0569 µM). Besides, in data set [1] (setting [7]), the IC50 turned out to be 0.0212 µg/mL (≈ 0.0574 µM). In the data set with male Swiss albino mice, the mortality in mice result was “none of the compounds caused mortality” and the “visible signs of overt toxicity” value is on record as “no visible signs of overt toxicity”.
`Cc1ccccc1-n1c(/C=C/c2ccc(Cl)cc2)nc2ccccc2c1=O` [Compound 7, (E)-2-(4-chlorostyryl)-3-o-tolylquinazolin-4(3H)-one]: the inhibition in vivo at 48.46 µmol/kg in data set [2] (setting [6]) was less than 50%. In addition, in data set [2] (setting [5]), the Mean survival time came out at 6.9 ± 0.5 days and the “% Parasitemia” value is given as 35.69 ± 0.69%. The IC50 in data set [1] (setting [7]) was determined as 3.25 ± 0.282 µg/mL (≈ 8.71 µM).
Consider `COc1cc(/C=C/c2nc3ccccc3c(=O)n2-c2ccc(C)cc2)ccc1OC(C)=O` [Compound 10, 4-((1E)-2-(3,4-dihydro-4-oxo-3-p-tolylquinazolin-2-yl)vinyl)-2-methoxyphenyl acetate], for which, in data set [2] (setting [5]), the Mean survival time is 9.8 ± 0.24 days and the “% Parasitemia” value amounted to 16.85 ± 0.39%. Besides, the IC50 in data set [1] (setting [4]) came to 0.196 ± 0.042 µg/mL. Moreover, in the data set on male Swiss albino mice, the mortality in mice result is on record as “none of the compounds caused mortality” and the “visible signs of overt toxicity” value is recorded as “no visible signs of overt toxicity”.
With `CC(=O)Oc1ccc(/C=C/c2nc3ccccc3c(=O)n2-c2ccccc2C)cc1` [Compound 8, 4-((1E)-2-(3,4-dihydro-4-oxo-3-o-tolylquinazolin-2-yl)vinyl)phenyl acetate], in data set [2] (setting [5]), the Mean survival time came to 9.4 ± 0.37 days and the “% Parasitemia” value is recorded as 19.57 ± 0.77%. The IC50 in data set [1] (setting [7]) was 3.33 ± 0.126 µg/mL. For the same molecule, in the data set with male Swiss albino mice, the mortality in mice result is “none of the compounds caused mortality” and the “visible signs of overt toxicity” value was “no visible signs of overt toxicity”.
With `Cc1ccc(-n2c(/C=C/c3ccc(O)cc3)nc3ccccc3c2=O)cc1` [Compound 12, (E)-2-(4-hydroxystyryl)-3-p-tolylquinazolin-4(3H)-one], in data set [2] (setting [6]), the inhibition in vivo at 48.46 µmol/kg was more than 50%. In data set [2] (setting [5]), the Mean survival time turned out to be 7.6 ± 1.12 days and the “% Parasitemia” value is recorded as 32 ± 0.5%. Also, the IC50 in data set [1] (setting [7]) is 1.84 ± 0.168 µg/mL (≈ 5.2 µM).
The like results for `Cc1ccccc1-n1c(/C=C/c2ccc(O)cc2)nc2ccccc2c1=O` [Compound 11, (E)-2-(4-hydroxystyryl)-3-o-tolylquinazolin-4(3H)-one] were, in that order, more than 50%, 7.3 ± 0.54 days, 25.27 ± 0.76% and 0.185 ± 0.026 µg/mL (≈ 0.522 µM).
`O=c1c2ccccc2nc(-c2ccccc2)n1Cc1ccccc1` [III]: in the data set on Leishmania major, the “IC50, in vitro antileishmanial activity” value is recorded as 48.91 µg/mL (≈ 157 µM).
With `COc1cc(/C=C/c2nc3ccccc3c(=O)n2-c2ccc(C)cc2)ccc1O` [Compound 13, (E)-2-(4-hydroxy-3-methoxystyryl)-3-p-tolylquinazolin-4(3H)-one], the inhibition in vivo at 48.46 µmol/kg in data set [2] (setting [6]) is more than 50%. Also, in data set [2] (setting [5]), the Mean survival time stood at 7.9 ± 0.3 days and the “% Parasitemia” value turned out to be 24.13 ± 0.29%. In addition, the IC50 in data set [1] (setting [7]) was found to be 2.27 ± 0.214 µg/mL (≈ 5.89 µM).
